Ends that are not written are not given here.
Legend:
[1] = test system: P. aeruginosa PA14 resistant clones (Sm, Wr, Sc); assay: Aggregation assay of resistant clones; type: cell-based; details: presence (4 μg/ml) versus absence of WLBU2, settled 24 hours at 4° C.
Description: To determine the aggregation ability of the 4 clones selected in the subinhibitory experiment, two replicates (R1 and R2) of each clone and the ancestral strain were grown in 5 mL of M9^+ for 24 hours at 37 degrees Celsius (° C.) in a roller drum at 200 revolutions per minute (RPM). After 24 hours, the whole culture of each clone was transferred to a 13 mm glass tube, and the tubes were allowed to settle over 24 hours at 4° C. without shaking. Replicate 1 (R1) of each clone was vortexed for 30 seconds and the optical density at 600 nanometers (OD600) was measured. From R2, 200 μl of the upper fraction was carefully taken without vortexing and the OD600 was measured. The aggregation percentage was estimated as […]. This experiment was performed with five replicates both in the absence and presence (4 μg/ml) of WLBU2 (SEQ ID NO: 1).

[2] = test system: ESKAPE (Enterococcus faecium, Staphylococcus aureus, Klebsiella pneumoniae, Acinetobacter baumannii, Pseudomonas aeruginosa and Enterobacter spp.) pathogens; details: in vitro and in vivo, even when protected by biofilms; cited from earlier work
[3] = test system: wild-type P. aeruginosa PA14; assay: Experimental evolution with extended subinhibitory exposure, population survival; type: cell-based
Description: In the third experiment, 5 planktonic populations of the non-hypermutant laboratorial strain P. aeruginosa PA14 were propagated under subinhibitory concentrations of WLBU2 (SEQ ID NO: 1) for 10 days. The populations that survived the treatment with 1×MIC of WLBU2 (SEQ ID NO: 1) were propagated for 2 days.
(§1) The planktonic propagations were serially passaged through 50 uL into 5 mL of M9+(dilution factor 100) which corresponds to approximately 6.66 generations per day. For the biofilm populations, a polystyrene bead (Polysciences, Inc., Warrington, PA) was transferred to fresh media containing 3 sterile beads. Each bead was rinsed in phosphate buffered saline (PBS) before the transfer to reduce the transfer planktonic cells. Each day, black and white marked beads were alternated, ensuring that the bacteria were growing on the bead for 24 hours, which corresponds to 6 to 7.5 generations/day.
Five planktonic populations of wild-type P. aeruginosa PA14 was propagated for 10 days under subinhibitory concentrations of WLBU2 (SEQ ID NO: 1), followed by 2 days at inhibitory concentrations. It was estimated the probability that any given nucleotide would be mutated during this regime was 0.74, with mean mutations per site of 1.52. […] Different colony morphologies were also detected within each population at the end of the experiment. […]

[4] = test system: P. aeruginosa and S. aureus biofilms; details: cited from earlier work
[5] = test system: P. aeruginosa PA14 mutS mutator strain and populations evolved from it; assay: MIC by broth microdilution (CLSI), mutator ancestor and mutator-derived evolved populations; type: cell-based; details: FIG. 3A, mutS-derived populations and clones from WT ancestor, p<0.05 one-way ANOVA
Description: Phenotypic characterization: antimicrobial susceptibility and aggregation assay: The MIC to WLBU2 (SEQ ID NO: 1) and polymyxin B of the whole populations and 4 clones were determined by broth microdilution according to the Clinical and Laboratory Standards Instituted guidelines (CLSI 2019), in which each bacterial sample was tested in 2-fold increasing concentrations of each antibiotic. WLBU2 (SEQ ID NO: 1) was provided by Peptilogics (Peptilogics, Pittsburgh, PA) and polymyxin B was provided by Alfa Aesar (Alfa Aesar, Wardhill, Mass.). The experiments were performed with three replicates of the antibiotics.

[6] = test system: P. aeruginosa (PA14 mutS:T114P); assay: Experimental evolution with hypermutator ancestor, population survival; type: cell-based
Excerpt: In the second experiment, 5 planktonic populations and 5 biofilm populations under the same conditions described above, and a mutator strain of P. aeruginosa (PA14 mutS:T114P), obtained from Flynn et al. (“Evolution of Ecological Diversity in Biofilms of Pseudomonas aeruginosa by Altered Cyclic Diguanylate Signaling.” J. Bacteriol., 2016, 198:2608-2618). Additionally, 3 planktonic populations and 3 biofilm populations of the hypermutant strain in the absence of antibiotic (e.g., WLBU2 (SEQ ID NO: 1)) pressure were propagated. Hypermutant strains of bacteria, such as P. aeruginosa, can develop in patients, and may be characterized as having increased mutation rates, e.g., up to 1,000-fold, as compared to wild-type bacteria, such as P. aeruginosa (see, e.g., Maciá, Maria D et al. “Hypermutation is a key factor in development of multiple-antimicrobial resistance in Pseudomonas aeruginosa strains causing chronic lung infections.” Antimicrobial agents and chemotherapy vol. 49, 8 (2005): 3382-6).
as §1
Increasing mutation supply by using hypermutator strain promotes evolution resistance: A method to increase mutation supply during evolution experiments was to use an ancestral strain with a higher mutation rate. These mutator genotypes commonly evolve during chronic infections of P. aeruginosa and therefore relevant to antimicrobial resistance (AMR) evolution. […]

P. aeruginosa PA14 = assay: Experimental evolution in increasing WLBU2 concentrations (previously used protocol), population survival; type: cell-based
Description: Experimental evolution: Three independent evolution experiments were conducted. The ancestor strains were propagated in a rich medium modified from M9 (“M9+”) containing 0.37 millmolar (mM) CaCl2), 8.7 mM MgSO4, 42.2 mM Na2HPO4, 22 mM KH2PO4, 21.7 mM NaCl, 18.7 mM NH4Cl and 0.2 grams per liter (g/L) glucose and supplemented with 20 milliliters per liter (mL/L) MEM essential amino acids (Gibco 11130051), 10 mL/L MEM nonessential amino acids (Gibco 11140050), and 10 mL each trace mineral solution A, B, and C (Corning 25021-3Cl). […]
(§2) For identifying mechanisms of resistance to WLBU2 (SEQ ID NO: 1), laboratory strains of A. baumannii ATCC 17978 and P. aeruginosa PA14 that had no prior exposure to WLBU2 (SEQ ID NO: 1) were propagated. […] Two factors that increase the likelihood of developing resistance were determined to be: i) the mutation supply determined by population size and the mutation rate and ii) the strength of selection imposed by the antibiotic. […] In Table 2, the mean mutations per nucleotide and the cumulative probability of a mutation per nucleotide knowing the mutation rate was calculated using the length of the chromosome, the number of divisions/days, and the length of the exposure before facing inhibitory concentrations of antibiotic (WLBU2 (SEQ ID NO: 1)). […]

A. baumannii ATCC 17978 = assay: Experimental evolution in increasing antibiotic concentrations, population survival; type: cell-based
Description: Experimental evolution: Three independent evolution experiments were conducted. The ancestor strains were propagated in a rich medium modified from M9 (“M9+”) containing 0.37 millmolar (mM) CaCl2), 8.7 mM MgSO4, 42.2 mM Na2HPO4, 22 mM KH2PO4, 21.7 mM NaCl, 18.7 mM NH4Cl and 0.2 grams per liter (g/L) glucose and supplemented with 20 milliliters per liter (mL/L) MEM essential amino acids (Gibco 11130051), 10 mL/L MEM nonessential amino acids (Gibco 11140050), and 10 mL each trace mineral solution A, B, and C (Corning 25021-3Cl).
In the first experiment, a single clone of A. baumannii ATCC 17978 and P. aeruginosa PA14 were selected and propagated independently for 24 hours in M9^+ in the absence of antibiotics. Each population was then sub-cultured into 10 replicate populations. Ten of the populations (5 planktonic and 5 biofilm) were propagated every 24 hours in increasing concentrations of WLBU2 (SEQ ID NO: 1) starting at 0.5× the minimum inhibitory concentration (MIC). The WLBU2 (SEQ ID NO: 1) was doubled after 72 hours until no population survived the treatment. As a control, the same number of strains were propagated (both planktonically and in biofilm) in the absence of antibiotics (e.g., WLBU2 (SEQ ID NO: 1)). Ten populations (5 planktonic and 5 biofilm) were propagated in increasing convention of the cationic peptide polymyxin B. […]
as §2

[7] = five mutator populations per lifestyle
[8] = planktonic and biofilm, 3 days at 0.5x MIC before the MIC

Substance	aggregation of Sm colonies relative to WT [1]	effectiveness against ESKAPE pathogens [2]	Populations that survived entire experiment (%) ([3]; extended subinhibitory exposure, strain PA14, 10 days subinhibitory then 2 days inhibitory)	populations that survived the prolonged subinhibitory treatment ([3]; five planktonic populations, 10 days subinhibitory then 2 days inhibitory)	activity against biofilms [4]	resistance level (MIC) of evolved populations versus WT [5]	biofilm populations that survived the treatment [6, 7]	planktonic populations that survived the treatment [6, 7]	Populations that survived entire experiment (%) ([6]; hypermutator ancestor PA14 mutS: T114P, 3 days before inhibitory concentrations)	populations that survived exposure of the MIC (P. aeruginosa PA14; [8])	Populations that survived entire experiment (%) (P. aeruginosa PA14; previously used protocol, strain PA14, 3 days before inhibitory concentrations)	populations that survived exposure of the MIC (A. baumannii ATCC 17978; [8])	biofilm populations that survived in 4-times the MIC (A. baumannii ATCC 17978; biofilm lifestyle, increasing concentrations over 12 days)	planktonic populations that survived in 4-times the MIC (A. baumannii ATCC 17978; planktonic lifestyle, 5 populations, increasing concentrations over 12 days)
RRWVRRVRRVWRRVVRVVRRWVRR [WLBU2]	only clustered more in the presence of the peptide	highly effective	40	two	high activity	significantly exceeded WT resistance	three	Two	50	no populations	0	no populations		
polymyxin B													four out of the five	all
